Broadly, the MIC is the least concentration at which growth counts as inhibited.

We go through 2 compounds from publication PMC9606955, “In Vitro Activity of Essential Oils Distilled from Colombian Plants against Candida auris and Other Candida Species with Different Antifungal Susceptibility Profiles” (Molecules, 2022).

Molecules are shown by their SMILES. Converted amounts (≈) assume the structure as drawn.

What all share (format): cell-based, Candida auris
For one test, the system named is C. auris. Briefly: MIC, CLSI M27 broth microdilution, several C. auris strains together. The following applies: C. auris Ca 41, Ca 45 and Ca 46 together. The text has this: The fungal strains used in this study were C. albicans ATCC 10231, C. albicans ATCC 64550, C. parapsilosis ATCC 22019, C. tropicalis ATCC 750, C. tropicalis ATCC 200956 (resistant to azoles and AMB), C. glabrata LMDM 34 (resistant to echinocandins), C. metapsilosis MUM 15.12, C. orthopsilosis MUM 17.13, C. lusitaniae MUM 17.08, C. krusei ATCC 6258 (Issatchenkia orientalis ATCC 6258), and C. auris CDC B11903. Additionally, nine clinical isolates were included: C. parapsilosis Synlab 406 (FLC-resistant) and eight C. auris isolates identified by MALDI-TOF MS (Bruker Daltonics, Bremen, Germany) according to Zhao et al.. These yeasts were cultured on Sabouraud Dextrose Agar (SDA; Sigma-Aldrich, St. Louis, MO, USA) for 24 h at 35 °C.
Antifungal susceptibility testing was performed according to Clinical and Laboratory Standards Institute M27, 4th Edition (CLSI standard M27, 4th Edition). […] MICs were visually determined at the lowest concentration that produced visual inhibition compared to the growth control. […] The results were expressed as geometric means (GM) and ranges. As an antifungal susceptibility testing control, the activity of ITC and AMB against the reference strains C. krusei ATCC 6258 and C. parapsilosis ATCC 22019 was evaluated in all experiments following the CLSI standard M27, 4th Edition. […]
A general note: In broth dilution the organism is exposed to a series of concentrations in liquid medium.

The test system of another test is C. auris Ca 45. Briefly: MIC, CLSI M27 broth microdilution. The following applies: C. auris Ca 45; for MIC Range / MIC: antifungal drugs; for MIC: Candidozyma auris, CA45, geometric mean, read-out: MIC GM. The method, boiled down:
(§1)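 CLSI M27 (4th ed.) broth microdilution, modified for essential oils and terpenes: yeasts grown on SDA 24 h at 35 °C, inoculum 2.5 × 10^3 CFU/mL in RPMI 1640-MOPS, two-fold dilutions at 0.5–256 µg/mL final. Visual MIC after 24 h at 35 °C; ≥3 runs in duplicate, reported as geometric mean and range.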

A further test concerns C. auris Ca 46. Briefly: MIC, CLSI M27 broth microdilution. The following applies: C. auris Ca 46; for MIC Range / MIC: antifungal drugs; for MIC: Candidozyma auris, CA46, geometric mean, read-out: MIC GM. The method, boiled down:
as §1

Another test concerns C. auris Ca 17. As to the kind of experiment: MIC, CLSI M27 broth microdilution. The following applies: C. auris Ca 17; for MIC Range / MIC: antifungal drugs; for MIC: Candidozyma auris, CA17, geometric mean, read-out: MIC GM. The method, boiled down: as §1
In a further test the test system is C. auris Ca 1. As to the kind of experiment: MIC, CLSI M27 broth microdilution. Particulars: C. auris Ca 1, antifungal drugs; for MIC: Candidozyma auris, CA1, geometric mean, read-out: MIC GM. The method, boiled down: as §1

For the compound `C[C@@H]1[C@H](O)[C@@H](C)/C=C/C=C/C=C/C=C/C=C/C=C/C=C/[C@H](O[C@@H]2O[C@H](C)[C@@H](O)[C@H](N)[C@@H]2O)C[C@@H]2O[C@](O)(C[C@@H](O)C[C@@H](O)[C@H](O)CC[C@@H](O)C[C@@H](O)CC(=O)O[C@H]1C)C[C@H](O)[C@H]2C(=O)O` [AMB, amphotericin B], the MIC Range lay within 1 to 2 µg/mL against C. auris; 1 to 2 µg/mL with C. auris Ca 45; 1 to 2 µg/mL with C. auris Ca 46; 0.06 to 0.25 µg/mL in the test with C. auris Ca 17; 0.12 to 0.25 µg/mL against C. auris Ca 1. Also, the susceptibility category entry in the test with C. auris Ca 45 (CDC breakpoints) and in the test on C. auris Ca 46 (CDC breakpoints) was “AMB-resistant” throughout. Besides, the MIC in the test on C. auris Ca 45 is 1.41 µg/mL (≈ 1.53 µM); in the test on C. auris Ca 46, 1.4 µg/mL (≈ 1.52 µM); in the test on C. auris Ca 17 it was 0.15 µg/mL (≈ 0.162 µM); in the test with C. auris Ca 1, 0.2 µg/mL (≈ 0.216 µM).
`OC(Cn1cncn1)(Cn1cncn1)c1ccc(F)cc1F` [FLC, fluconazole]: the “MIC Range” value was 2 µg/mL (≈ 6.53 µM) in the test with C. auris Ca 45, 2 to 4 µg/mL against C. auris Ca 46, 32 µg/mL (≈ 104 µM) against C. auris Ca 17 and 4 µg/mL (≈ 13.1 µM) with C. auris Ca 1. The MIC was 2 µg/mL (≈ 6.53 µM) in the test with C. auris Ca 45, 2.8 µg/mL (≈ 9.14 µM) with C. auris Ca 46, 32 µg/mL (≈ 104 µM) in the test with C. auris Ca 17 and 4 µg/mL (≈ 13.1 µM) in the test on C. auris Ca 1. Besides, the susceptibility category result with C. auris Ca 17 (CDC breakpoints) is recorded as “FLC-resistant”.
